The values that follow come from a melting point compilation (Tetko et al.; mined from patent text by program, amines drawn as free bases though some values may be those of a salt).

The compound `COc1ccccc1NC(=O)Nc1nc(Oc2ccc3ccccc3c2)nc(N(CCC(=O)O)Cc2cccc(C)c2)n1` registered a melting point of 105 to 125 °C. Then `CSc1ccc(-c2nc(SC)c(C#N)c(=O)n2-c2ccc(Cl)cc2)cc1`, with 203 to 205 °C; and `O=COC1(N=NC2(OC=O)CCCCC2)CCCCC1`, with 97 to 99.5 °C; and `NC(=O)c1cc2cccc(N(CC3CC3)S(=O)(=O)c3cccs3)c2[nH]1`, with 229 to 231 °C. Then `CC1(C2CC2)OC(=O)Nc2ccc(-c3cccc(Cl)c3)cc21` (stereo not given), with 158 to 159 °C; and `CCc1n[nH]c(C(N)=O)c1NC(=O)c1cc(S(C)(=O)=O)ccc1OCc1ccccn1`, with 134 to 138 °C.

`CCOC(=O)C(Cc1ccc(OCCN2CCC(C)(C)c3cc(C(=NOC)c4ccccc4)ccc32)cc1)Nc1ccccc1C(=O)c1ccccc1` (stereo not given): the melting point lay within 78 to 80 °C. Then `N#Cc1cnc2cc(/C=C/CCCCCCCCCN3CCOCC3)ccc2c1Nc1ccc(Cl)cc1Cl`, with 105 to 106 °C; and `CN1C(=O)C2(COc3cc4c(cc32)OCCO4)c2c(-c3cn[nH]c3)cccc21` (stereo not given), with 250 to 251 °C. Next, `Cc1[nH]cnc1CSCCN=CNS(=O)(=O)c1ccccc1`: 48 to 51 °C. Then `COc1ccc(NN=C(Sc2c(C)cccc2C)C(C)=O)cc1`, with 107 to 109 °C; and `CCOc1cccc(CN2CCc3cc(O)ccc3C2)c1`, with 120 to 121 °C; and `COc1cccc(CC(=O)O)c1OCCCc1cn(-c2ncc(Cl)cc2Cl)nc1C(C)C`, with 105 to 106 °C.

Take `NCc1ccc(C(=O)Nc2ccc(-n3nc(C(F)(F)F)cc3C(F)(F)F)cc2)c(Cl)c1`: the melting point was 90 to 93 °C. Then `NCC1c2ccccc2C=Cc2ccccc21`, with 95 to 96.5 °C; and `CCC(C)(C)N1C(=O)C2(COc3cc4c(cc32)OCCO4)c2ccccc21` (stereo not given), with 111 to 113 °C. Next, `COC(=O)c1cc(Cl)cc(C=O)c1O`: 132 to 134 °C; `CC(C)(C)S(=O)(=O)c1ccc(C(=O)O)c(Cl)c1`: 181 to 182 °C. Then `Cc1nccnc1NCCN1CCC(NC(=O)c2cc(Cl)c(N)c3c2OC(C)(C)C3)CC1`, with 163 °C; and `O=C1CC(=O)CC(c2ccc(Cl)c(Cl)c2)C1`, with 198 to 200 °C; and `COC(=O)c1sccc1-c1ccccc1`, with 63 to 66 °C.

The compound `N#CC(C(=O)NC1CC1)C(=O)C1CC1` (stereo not given) yielded a melting point of 136 to 138 °C. Next, `COc1ccc2c(-c3ccccc3)c(C(=O)O)c(=O)[nH]c2c1`: 292 to 294 °C; `Cc1c(SCCCN2CCN(Cc3ccncc3)CC2)ccnc1CNc1cnc2ccccc2c1`: 145 to 150 °C. Then `CCCCc1cn(-c2cccn2CC)c(=O)n1Cc1ccc(-c2ccccc2-c2nnn[nH]2)nc1`, with 174 to 175 °C; and `O=S1(=O)CC(=Cc2ccc(Cl)cc2)C2=NN(c3ccccc3)C(c3ccc(Cl)cc3)C2C1` (stereo not given), with 246 to 249 °C; and `COc1cn(-c2ccc(-c3c(C)noc3C)cc2F)nc(-c2ccnn2-c2ccccc2)c1=O`, with 200 to 202 °C. Then `CCOC(=O)N1CC1C(N)=O` (stereo not given), with 125 to 128 °C; and `COc1c2c(c(OC)c(OC)c1OC)CCC(=O)CC2`, with 77 to 78 °C. `CCC1CC2C3CCC4=C(CCC(=O)C4)C3=CCC2(CC)C1OC(C)=O` (stereo not given) registered a melting point of 123 to 127 °C. Then `CCOC(=O)N(O)Cc1cccc(Nc2ccccc2C(=O)OC)c1Cl`, with 108 to 110 °C; and `C[C@@H](NC(=CC(=O)OC(C)(C)C)Cc1cc(F)c(F)cc1F)c1ccccc1`, with 76 °C; and `CCOC(=O)c1ccc(C(=O)NNC(=O)c2ccc(C(=O)OCC)cc2)cc1`, with 191 to 195 °C. Next, `Cc1cc(O)c(SC(C)(C)C)c(=O)o1`: 108 to 112 °C; `COc1ccc(C2=C(c3ccc(O)cc3)CCCc3cc(O)ccc32)cc1`: 250 to 252 °C.

Usually melting point stands for the temperature, or range, at which the solid turns liquid.
